Source: ChEMBL document CHEMBL1201862, “PubChem BioAssay data set” (2004)
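Dose response: 5 concentrations. Exposure: 48 h. Format: 96-well plates. Endpoint: linear interpolation; highest concentration if not reached. GI50: concentration for 50% inhibition of growth.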 Activity calls are given as the source filed them. Cut-off read from the data, not from the text of the source: active = GI50 up to about 1.1 µM and inactive = higher.

Tests used:
Assay in all cases: NCI tumour cell line growth inhibition, 48 h
CAKI-1 = test system: CAKI-1
CCRF-CEM = test system: CCRF-CEM
COLO 205 = test system: COLO 205
HCC 2998 = test system: HCC 2998
HCT-116 = test system: HCT-116
HOP-62 = test system: HOP-62
K562 = test system: K562
MCF7 = test system: MCF7
NCI-H226 = test system: NCI-H226
OVCAR-3 = test system: OVCAR-3
OVCAR-4 = test system: OVCAR-4
SF-268 = test system: SF-268
SF-295 = test system: SF-295
SK-OV-3 = test system: SK-OV-3
SNB-19 = test system: SNB-19
UACC-62 = test system: UACC-62
UO-31 = test system: UO-31
786-0 = test system: 786-0
ACHN = test system: ACHN
M14 = test system: M14

Measured: GI50

N[C@@H](CSCSC[C@H](N)C(=O)O)C(=O)O
inactive: CAKI-1 > 225 µM | CCRF-CEM 89.5 µM | COLO 205 > 225 µM | HCC 2998 > 225 µM | HCT-116 > 225 µM | HOP-62 > 225 µM | K562 > 225 µM | MCF7 > 225 µM | NCI-H226 > 225 µM | OVCAR-3 > 225 µM | OVCAR-4 > 225 µM | SF-268 > 225 µM | SF-295 > 225 µM | SK-OV-3 > 225 µM | SNB-19 174 µM | UACC-62 > 225 µM | UO-31 > 225 µM

CSCC(CO)NC(=O)/C=C/c1c(C)[nH]c(=O)[nH]c1=O (configuration not stated)
inactive: CAKI-1 91.8 µM | CCRF-CEM 153 µM | COLO 205 68.5 µM | HCC 2998 85.1 µM | HCT-116 507 µM | HOP-62 596 µM | K562 117 µM | MCF7 40.3 µM | NCI-H226 752 µM | OVCAR-3 53.1 µM | OVCAR-4 31.9 µM | SF-268 223 µM | SF-295 > 875 µM | SK-OV-3 641 µM | SNB-19 791 µM | UACC-62 > 800 µM | UO-31 557 µM

COc1ccc(N[S+]([O-])c2ccc(-c3ccccc3)cc2)cc1 (configuration not stated)
inactive: 786-0 > 10 µM | ACHN > 100 µM | CAKI-1 > 100 µM | CCRF-CEM > 100 µM | COLO 205 > 100 µM | HCC 2998 > 100 µM | HCT-116 > 100 µM | HOP-62 52 µM | K562 > 100 µM | M14 86.1 µM | MCF7 > 100 µM | NCI-H226 > 100 µM | OVCAR-3 > 100 µM | SF-268 30.9 µM | SF-295 > 100 µM | SNB-19 41.8 µM | UO-31 > 100 µM

O=C(O)C(Cc1ccc(O)cn1)NC(=O)C(F)(F)F (configuration not stated)
inactive: 786-0 > 100 µM | ACHN > 100 µM | CAKI-1 > 100 µM | CCRF-CEM > 100 µM | COLO 205 > 100 µM | HCC 2998 > 100 µM | HCT-116 > 100 µM | HOP-62 > 100 µM | K562 > 100 µM | MCF7 > 100 µM | NCI-H226 > 100 µM | OVCAR-3 > 100 µM | SF-268 > 100 µM | SF-295 > 100 µM | SNB-19 > 100 µM | UO-31 > 100 µM
